From patent US20210085640A1, “ACYLATED CATECHIN POLYPHENOLS AND METHODS OF THEIR USE FOR THE TREATMENT OF CANCER” (Flagship Pioneering Innovations V, Inc., priority 2018, published 2021)

Experiments:
Format in all cases: cell-based
[1] = system: T24 bladder cancer cells; assay: Cancer cell survival (CellTiter-Glo), T24; settings: 72 h
In short: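 T24 cells seeded at 4×10^3 cells/well overnight, then exposed 72 h at 37 C, 5% CO2 to nine concentrations in triplicate. Survival measured by CellTiter-Glo luminescence relative to untreated and medium controls; IC50 derived.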

[2] = system: Daudi lymphoma cancer cells; assay: Cancer cell survival (CellTiter-Glo), Daudi; settings: 72 h
In short: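 Daudi cells (4×10^3/well) were exposed for 72 h at 37 °C to nine concentrations of compound, added as 10× solutions spanning 1 μM–10 mM (fatty acids) or 100 nM–1 mM (others). CellTiter-Glo luminescence gave % survival versus untreated, medium-blank corrected; IC50 derived.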

[3] = system: MCF7 breast cancer cells; assay: Cancer cell survival (CellTiter-Glo), MCF7; settings: 72 h
In short: (§1)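 Cells seeded at 4×10^3 cells/well, incubated overnight, then treated in triplicate at nine concentrations for 72 h at 37 C, 5% CO2. Viability by CellTiter-Glo luminescence, survival % normalized to untreated and medium controls; IC50 derived.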

[4] = system: HCT 116 colorectal cancer cells; assay: Cancer cell survival (CellTiter-Glo), HCT 116; settings: HCT 116 cells, 72 h
In short: as §1

[5] = system: A549 lung cancer cells; assay: Cancer cell survival (CellTiter-Glo), A549; settings: 72 h
In short: as §1

[6] = system: PC-3 prostate cancer cells; assay: Cancer cell survival (CellTiter-Glo), PC-3; settings: PC-3 cells, 72 h
In short: as §1

[7] = system: A-431 skin cancer cells; assay: Cancer cell survival (CellTiter-Glo), A-431; set-up: Cell survival at given concentration: unit not given here; settings: A-431 cells, 72 h
In short: as §1

[8] = system: AGS stomach cancer cells; assay: Cancer cell survival (CellTiter-Glo), AGS; set-up: Cell survival at given concentration: unit not given here
In short: as §1

**Q.** How did the “Cell survival at given concentration” value ([1]; 101 nM) turn out when `O=c1oc2cc(O)ccc2c2cc(O)c(O)cc12` [urolithin C] was run?
**A.** 1.00

**Q.** And the “Cell survival at given concentration” value ([1]; 318 nM)?
**A.** 0.94

**Q.** What about the “Cell survival at given concentration” value ([1]; 1 μM) of the same compound?
**A.** 0.96

**Q.** What about the “Cell survival at given concentration” value ([1]; 3 μM) of the same compound?
**A.** 0.96

**Q.** What about the “Cell survival at given concentration” value ([1]; 10 μM) of the same compound?
**A.** 0.93

**Q.** And the “Cell survival at given concentration” value ([1]; 32 μM)?
**A.** 0.37

**Q.** And the “Cell survival at given concentration” value ([1]; 100 μM)?
**A.** 0.12

**Q.** What about the “Cell survival at given concentration” value ([1]; 316 μM) of the same compound?
**A.** 0.08

**Q.** What about the “Cell survival at given concentration” value ([1]; 1000 μM) of the same compound?
**A.** 0.07

**Q.** What about the IC50 ([1]; Table 3.1, read-out: 1050) of the same compound?
**A.** 26.1 µM

**Q.** What about the “Cell survival at given concentration” value ([2]; 101 nM) of the same compound?
**A.** 0.99

**Q.** And the “Cell survival at given concentration” value ([2]; 318 nM)?
**A.** 0.99

**Q.** What about the “Cell survival at given concentration” value ([2]; 1 μM) of the same compound?
**A.** 1.00

**Q.** What about the “Cell survival at given concentration” value ([2]; 3 μM) of the same compound?
**A.** 1.00

**Q.** What about the “Cell survival at given concentration” value ([2]; 10 μM) of the same compound?
**A.** 0.89

**Q.** What about the “Cell survival at given concentration” value ([2]; 32 μM) of the same compound?
**A.** 0.36

**Q.** And the “Cell survival at given concentration” value ([2]; 100 μM)?
**A.** 0.18

**Q.** And the “Cell survival at given concentration” value ([2]; 316 μM)?
**A.** 0.16

**Q.** And the “Cell survival at given concentration” value ([2]; 1000 μM)?
**A.** 0.07

**Q.** What about the IC50 ([2]; Table 4.1) of the same compound?
**A.** 24.1 µM

**Q.** What about the “Cell survival at given concentration” value ([3]; 101 nM) of the same compound?
**A.** 0.97

**Q.** And the “Cell survival at given concentration” value ([3]; 318 nM)?
**A.** 0.99

**Q.** What about the “Cell survival at given concentration” value ([3]; 1 μM) of the same compound?
**A.** 0.97

**Q.** What about the “Cell survival at given concentration” value ([3]; 3 μM) of the same compound?
**A.** 1.02

**Q.** What about the “Cell survival at given concentration” value ([3]; 10 μM) of the same compound?
**A.** 1.07

**Q.** What about the “Cell survival at given concentration” value ([3]; 32 μM) of the same compound?
**A.** 0.76

**Q.** What about the “Cell survival at given concentration” value ([3]; 100 μM) of the same compound?
**A.** 0.22

**Q.** What about the “Cell survival at given concentration” value ([3]; 316 μM) of the same compound?
**A.** 0.21

**Q.** And the “Cell survival at given concentration” value ([3]; 1000 μM)?
**A.** 0.20

**Q.** What about the IC50 ([3]; Table 5.1) of the same compound?
**A.** 34.7 µM

**Q.** And the “Cell survival at given concentration” value ([4]; 101 nM)?
**A.** 1.00

**Q.** And the “Cell survival at given concentration” value ([4]; 318 nM)?
**A.** 0.99

**Q.** What about the “Cell survival at given concentration” value ([4]; 1 μM) of the same compound?
**A.** 1.00

**Q.** And the “Cell survival at given concentration” value ([4]; 3 μM)?
**A.** 0.99

**Q.** What about the “Cell survival at given concentration” value ([4]; 10 μM) of the same compound?
**A.** 0.94

**Q.** And the “Cell survival at given concentration” value ([4]; 32 μM)?
**A.** 0.34

**Q.** And the “Cell survival at given concentration” value ([4]; 100 μM)?
**A.** 0.02

**Q.** And the “Cell survival at given concentration” value ([4]; 316 μM)?
**A.** 0.01

**Q.** And the “Cell survival at given concentration” value ([4]; 1000 μM)?
**A.** 0.01

**Q.** What about the IC50 ([4]; Table 6.1) of the same compound?
**A.** 25.5 µM

**Q.** What about the “Cell survival at given concentration” value ([5]; 101 nM) of the same compound?
**A.** 0.99

**Q.** And the “Cell survival at given concentration” value ([5]; 318 nM)?
**A.** 0.99

**Q.** What about the “Cell survival at given concentration” value ([5]; 1 μM) of the same compound?
**A.** 1.02

**Q.** What about the “Cell survival at given concentration” value ([5]; 3 μM) of the same compound?
**A.** 1.04

**Q.** What about the “Cell survival at given concentration” value ([5]; 10 μM) of the same compound?
**A.** 1.04

**Q.** And the “Cell survival at given concentration” value ([5]; 32 μM)?
**A.** 1.02

**Q.** And the “Cell survival at given concentration” value ([5]; 100 μM)?
**A.** 0.36

**Q.** And the “Cell survival at given concentration” value ([5]; 316 μM)?
**A.** 0.16

**Q.** What about the “Cell survival at given concentration” value ([5]; 1000 μM) of the same compound?
**A.** 0.12

**Q.** And the IC50 ([5]; Table 7.1)?
**A.** 93.5 µM

**Q.** And the “Cell survival at given concentration” value ([6]; 101 nM)?
**A.** 1.03

**Q.** What about the “Cell survival at given concentration” value ([6]; 318 nM) of the same compound?
**A.** 1.00

**Q.** What about the “Cell survival at given concentration” value ([6]; 1 μM) of the same compound?
**A.** 1.04

**Q.** And the “Cell survival at given concentration” value ([6]; 3 μM)?
**A.** 1.01

**Q.** And the “Cell survival at given concentration” value ([6]; 10 μM)?
**A.** 1.07

**Q.** And the “Cell survival at given concentration” value ([6]; 32 μM)?
**A.** 0.93

**Q.** And the “Cell survival at given concentration” value ([6]; 100 μM)?
**A.** 0.08

**Q.** And the “Cell survival at given concentration” value ([6]; 316 μM)?
**A.** 0.04

**Q.** What about the “Cell survival at given concentration” value ([6]; 1000 μM) of the same compound?
**A.** 0.03

**Q.** And the IC50 ([6]; Table 8.1)?
**A.** 52.6 µM

**Q.** And the “Cell survival at given concentration” value ([7]; 101 nM)?
**A.** 1.02

**Q.** What about the “Cell survival at given concentration” value ([7]; 318 nM) of the same compound?
**A.** 1.02

**Q.** What about the “Cell survival at given concentration” value ([7]; 1 μM) of the same compound?
**A.** 1.02

**Q.** And the “Cell survival at given concentration” value ([7]; 3 μM)?
**A.** 1.03

**Q.** What about the “Cell survival at given concentration” value ([7]; 10 μM) of the same compound?
**A.** 1.02

**Q.** What about the “Cell survival at given concentration” value ([7]; 32 μM) of the same compound?
**A.** 0.95

**Q.** What about the “Cell survival at given concentration” value ([7]; 100 μM) of the same compound?
**A.** 0.34

**Q.** And the “Cell survival at given concentration” value ([7]; 316 μM)?
**A.** 0.20

**Q.** What about the “Cell survival at given concentration” value ([7]; 1000 μM) of the same compound?
**A.** 0.06

**Q.** And the IC50 ([7]; Table 9.1)?
**A.** 76.7 µM

**Q.** What about the “Cell survival at given concentration” value ([8]; 101 nM) of the same compound?
**A.** 0.98

**Q.** What about the “Cell survival at given concentration” value ([8]; 318 nM) of the same compound?
**A.** 0.99

**Q.** And the “Cell survival at given concentration” value ([8]; 1 μM, Table 10.1)?
**A.** 0.98

**Q.** And the “Cell survival at given concentration” value ([8]; 3 μM, Table 10.1)?
**A.** 0.99

**Q.** What about the “Cell survival at given concentration” value ([8]; 10 μM, Table 10.1) of the same compound?
**A.** 1.02

**Q.** And the “Cell survival at given concentration” value ([8]; 32 μM, Table 10.1)?
**A.** 0.86

**Q.** What about the “Cell survival at given concentration” value ([8]; 100 μM, Table 10.1) of the same compound?
**A.** 0.15

**Q.** What about the “Cell survival at given concentration” value ([8]; 316 μM) of the same compound?
**A.** 0.04

**Q.** And the “Cell survival at given concentration” value ([8]; 1000 μM)?
**A.** 0.02

**Q.** And the IC50 ([8]; Table 10.1)?
**A.** 56 µM
